Values of other authors as cited in patent US20030077302A1, “Diclofenamide suspension gel” (priority 2000, published 2003).

Experiments:
intraocular pressure = conditions: rabbits
[1] = rabbits, topical suspensions

SMILES	reduction of the intraocular pressure (intraocular pressure; topical aqueous solution)	reduction of the intraocular pressure compared with suspensions of the free acid of diclofenamide (intraocular pressure; topical solutions)	tolerability, single applications (rabbit, in vivo)	side effects, repeated use (rabbits, solutions, repeated use)	aqueous humor values compared with solutions of sodium diclofenamide [1]
NS(=O)(=O)c1cc(Cl)c(Cl)c(S(N)(=O)=O)c1 [diclofenamide sodium]	clear and long lasting reduction of the intraocular pressure	clearly stronger and longer reduction of the intraocular pressure	well tolerated	severe undesirable side effects	
NS(=O)(=O)c1cc(Cl)c(Cl)c(S(N)(=O)=O)c1 [diclofenamide, 4,5-dichlorbenzene-1,3-disulfonamide]					clearly at a lower level
